# Test results reported in patent US9233117B2, “Treatment of inflammatory lesions of rosacea with ivermectin” (Galderma S.A., priority 2013, dated 2016).
# Several values for one entry are separate records, joined by “and”; a condition that tells them apart may be missing. Identical values can stand only once.
# What was measured:
# subjects with PPR = assay: Study 1 and Study 2: once-daily ivermectin 1% cream vs vehicle in moderate to severe PPR (Example 3); type: in vivo, human
# Method: Both studies were conducted in accordance with the ethical principles of the Declaration of Helsinki and Good Clinical Practices, and in compliance with local regulatory requirements.
# Each study had three parts. In the first part of the study, subjects with PPR were treated with ivermectin 1% cream (IVM 1%) or vehicle once daily at bedtime for 12 weeks. In the second part of the study, subjects initially treated with IVM 1% once daily at bedtime continued the same treatment, while subjects treated with the vehicle once daily switched to topical treatment with azelaic acid 15% gel twice daily, in the morning and evening. The third part of the study consisted of 4 weeks safety follow-up, without treatment.
# Eligible subjects were 18 years or older, with moderate or severe papulopustular rosacea as noted by an IGA of 3 (“several small or large papules/pustules, moderate erythema”) or 4 (“numerous small and/or large papules/pustules, severe erythema”), and presenting with 15-70 facial inflammatory lesions (papules and pustules). […]
# Efficacy assessments at each visit were the IGA of disease severity, and inflammatory lesion counts (papules and pustules) on each of the five facial regions (forehead, chin, nose, right cheek, left cheek). Safety assessments included adverse events (AEs) throughout the study, local tolerance parameters (stinging/burning, dryness, itching) at each study visit evaluated on a 4-point scale [from 0 (none) to 3 (severe)], and laboratory parameters (hematology and biochemistry) measured before and after treatment. […]
# The co-primary efficacy endpoints in both studies were the success rate based on the IGA outcome and absolute change from baseline in inflammatory lesion counts at the end of week 12 of the studies. The success rate based on IGA score [% of subjects who achieved “clear” or “almost clear” ratings on the IGA scale at week 12 (ITT-LOCF)] was analyzed by the Cochran-Mantel-Haenszel (CMH) test stratified by analysis site, using the general association statistic. […]
# [1] = Plasma pharmacokinetic study of ivermectin 1% cream in subjects with severe PPR (Example 5); type: in vivo, human
# Method: A multi-center, open-label, single treatment study was conducted to assess the pharmacokinetic (PK) profile of ivermectin 1% (w/w) cream in subjects with severe PPR. A maximized dose of about 2 mg/cm^2 (1 g of ivermectin 1% (w/w) cream, equivalent to 10 mg ivermectin per application) was applied to the face once daily for 4 weeks. The treatment was followed by a 28-Day follow-up period.
# A total of seventeen subjects received at least one dose of treatment. All subjects provided PK parameters at some time points, but fifteen (9 females and 6 males) provided full PK profiles at Days 0, 14 and 28.
# Blood samples for determination of ivermectin levels in plasma were taken from all subjects before application on Days 0, 7, 14, 21 and 28 (pre-dose samples corresponding to Cmin). Additional blood samples were taken on Days 0, 14 and 28 at 1, 3, 6, 9 and 12 hours after application. At, the end of the 28-Day treatment, blood samples were taken on Days 29, 30, 32, 35, 38, 42, 49 and 56 during the follow-up period. The plasma was isolated and frozen (−20° C.) pending analysis.
# The pharmacokinetic analysis was performed. From the individual plasma concentrations, the pharmacokinetic parameters were determined by non-compartmental method Kinetica™ sofware, version 4.3, InnaPhase Corporation, Philadelphia, USA).
# AUC0-24 H was calculated by the mixed linear-logarithmic trapezoidal method at Day 0, 14 and 28. BLQ was imputed as zero in the individual PK profile.
# During the follow up period, the following parameters were measured: • (1) AUC0-t: Area under the concentration-time curve calculated by the mixed linear-logarithmic trapezoidal method from T0 up to the sampling time corresponding to the last quantifiable concentration (Clast); • (2) Kel: The elimination rate constant value (kel) was obtained by linear regression of log-linear terminal phase of concentration-time profile using at least 3 data points, excluding Cmax, otherwise kel was not determined. The acceptability criteria for determination of kel was a coefficient of regression more or equal to 0.98. When kel was not determined, AUC0-inf and t½ were not reported; • (3) t½: The terminal half-life value (t½) was calculated using the equation ln2/kel; • (4) AUC0-inf: Area under the plasma concentration-time curve calculated by the mixed linear-logarithmic trapezoidal method from T0 and extrapolated to time infinity as: AUC0-inf=AUC0-t+Clast/kel.
# When the extrapolation represented more than 20%, AUC0-inf and t1/2 […]. Mean values, standard deviation (SD), lowest individual value (Min), maximal individual value (Max) and coefficient of variation (CV) were calculated and reported on each variables (Arithmetic mean for AUC, Cmax, Tmax and harmonic mean for t1/2). Conversely to the protocol, the standard error of mean (SEM) were not calculated and not reported. In addition a statistical analysis was performed on ivermectin specific parameters (including the accumulation ratios).
# [2] = orally administered; cited from earlier work
substance,measurement,setting,value
ivermectin,plasma accumulation of ivermectin,subjects with PPR; 52-week treatment period (Phase 3 study),no plasma accumulation
same,median reduction from baseline in inflammatory lesion counts,"subjects with PPR; Study 1, week 2",about 30%
same,median reduction from baseline in inflammatory lesion counts,"subjects with PPR; Study 2, week 2",27.3%
same,"AUC0-24 H, Min-Max",[1]; Day 0,[3.16-21.28] ng · h/mL
same,"AUC0-24 H, mean ± SD",[1]; Day 0,9.29 ± 5.40 ng·h/mL
same,"Pre-dose/Cmin, Min-Max",[1]; Day 0,[0.17-0.86] ng/mL
same,"Tmax, Min-Max",[1]; Day 0,[1-24] h
same,"Pre-dose/Cmin, mean ± SD","[1]; Day 0 (24 hours after D0), plasma, 1 g ivermectin 1% cream on the face once daily",0.37 ng/mL and 0.37 ± 0.21^(a) ng/mL
same,"Cmax, mean ± SD",[1]; Day 0 (single topical application),0.69 ng/mL
same,"Pre-dose/Cmin, Min-Max",[1]; Day 7,[0.56-3.26] ng/mL
same,"Pre-dose/Cmin, mean ± SD","[1]; Day 7, plasma, ivermectin 1% cream once daily",1.17 ± 0.88 ng/mL
same,"Pre-dose/Cmin, Min-Max",[1]; Day 14,[0.58-2.34] ng/mL
same,"Tmax, Min-Max",[1]; Day 14,[0-24] h
same,"AUC0-24 H, mean ± SD",[1]; Day 14 (steady state),36.14 ± 15.56 ng·h/mL
same,"Cmax, mean ± SD",[1]; Day 14 (steady state),2.10 ± 1.04 ng/mL
same,"Tmax, mean ± SD",[1]; Day 14 (steady state),10 ± 8 h
same,"Pre-dose/Cmin, mean ± SD","[1]; Day 14, plasma, ivermectin 1% cream once daily",1.26±0.53 ng/mL and 1.26 ± 0.53^(c) ng/mL
same,"Pre-dose/Cmin, Min-Max",[1]; Day 21,[0.66-3.25] ng/mL
same,"Pre-dose/Cmin, mean ± SD","[1]; Day 21, plasma, ivermectin 1% cream once daily",1.36±0.66 ng/mL and 1.36 ± 0.66^(c) ng/mL
same,"AUC0-24 H, mean ± SD",[1]; Day 28,35.43 ± 14.42 ng·h/mL
same,"Cmax, Min-Max",[1]; Day 28,[0.58-3.36] ng/mL
same,"Cmax, mean ± SD",[1]; Day 28,1.74 ± 0.77 ng/mL
same,"Pre-dose/Cmin, Min-Max",[1]; Day 28,[0.53-3.00] ng/mL
same,"Tmax, Min-Max",[1]; Day 28,[3-24] h
same,"Tmax, mean ± SD",[1]; Day 28,11 ± 4 h
same,total systemic exposure (AUC0-inf),[1]; Day 28,312 ± 173 ng·h/mL
same,"Pre-dose/Cmin, mean ± SD","[1]; Day 28, plasma, ivermectin 1% cream once daily",1.36 ± 0.63 ng/mL
same,time of last quantifiable concentration after application,[1]; after Day 28,approximately 24 days
same,"apparent terminal half-life, range","[1]; after the last topical application (Day 28), 14 subjects",92 to 238 h
same,relative bioavailability vs oral administration of ivermectin,"[1]; steady state, topical",16%
same,"t1/2, typical",[2],around 18 hours
